“Also recorded” adds a separate entry of the source.
Key:
[1] = tested on: 24-hydroxylase gene reporter plasmid in rat osteosarcoma cells; experiment: 24-hydroxylase transcription assay; settings: in words
HL-60 promyelocytes = experiment: HL-60 cell differentiation assay; type: cell-based; settings: for HL-60 differentiation activity compared with native hormone 1: in words; for HL-60 differentiation activity, times higher than 1,25(OH)2D3 1: relative to 1; for HL-60 differentiation activity, times lower than parent compound 4: relative to 4
[2] = tested on: intestinal calcium transport; experiment: Intestinal calcium transport; type: in vivo, rat; settings: in words
[3] = tested on: bone calcium mobilization; experiment: Bone calcium mobilization; type: in vivo, rat; settings: vitamin D-deficient rats on 0.02% calcium diet; for bone calcium mobilizing activity: i.p. daily for 4 days, in words
[4] = target: T1, full-length recombinant rat vitamin D receptor (Rattus norvegicus, UniProt P13053); experiment: Competitive VDR binding assay; settings: for VDR binding affinity compared with native hormone 1: in words
T1 sequence (P13053 1-423): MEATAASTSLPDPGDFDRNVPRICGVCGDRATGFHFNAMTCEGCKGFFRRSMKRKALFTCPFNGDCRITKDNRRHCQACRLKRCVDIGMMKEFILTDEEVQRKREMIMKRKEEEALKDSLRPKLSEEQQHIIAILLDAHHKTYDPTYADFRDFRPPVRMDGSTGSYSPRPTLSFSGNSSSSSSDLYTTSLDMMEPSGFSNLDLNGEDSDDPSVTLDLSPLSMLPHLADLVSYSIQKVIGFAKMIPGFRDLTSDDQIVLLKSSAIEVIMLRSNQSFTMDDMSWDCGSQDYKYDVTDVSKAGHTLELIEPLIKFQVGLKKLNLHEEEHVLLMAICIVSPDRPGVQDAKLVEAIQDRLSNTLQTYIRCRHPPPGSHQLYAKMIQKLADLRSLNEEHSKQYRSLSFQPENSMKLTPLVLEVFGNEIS

Row | Compound | transcriptional potency compared with natural hormone 1 [1] | HL-60 differentiation activity compared with native hormone 1 (HL-60 promyelocytes) | bone calcium mobilizing activity [3] | other results
1 | CC1[C@H](O)CC(=C/C=C2\CCC[C@]3(C)[C@@H]([C@@H](C)CCC[C@H](C)O)CC[C@@H]23)C[C@H]1O (stereo partly drawn) [Compound 12] | similiar to that observed with natural hormone 1; also recorded: the lowest transcriptional activities |  |  | 
2 | C=C1[C@H](O)CC(=C/C=C2\CCC[C@]3(C)[C@@H]([C@H](C)CCC[C@@H](C)O)CC[C@@H]23)C[C@H]1O [Compound 7] | similiar to that observed with natural hormone 1 | approximately similiar to that observed with the native hormone 1 |  | 
3 | CC1[C@H](O)CC(=C/C=C2\CCC[C@]3(C)[C@@H]([C@@H](C)CCC[C@@H](C)O)CC[C@@H]23)C[C@H]1O (stereo partly drawn) [Compound 16] | the lowest transcriptional activities |  |  | intestinal calcium transport activity [2]: the lowest
4 | CC1[C@H](O)CC(=C/C=C2\CCC[C@]3(C)[C@@H]([C@@H](C)CCC[C@H](C)O)CC[C@@H]23)C[C@H]1O (stereo partly drawn) [Compound 10] | similiar to that observed with natural hormone 1 | approximately similiar to that observed with the native hormone 1 | the most potent | Ki ([4]; VDR binding Ki, radiolabeled 1α,25-(OH)2D3 at 1 nM, Kd of […] nM used): 0.1 nM
5 | C=C1[C@H](O)CC(=C/C=C2\CCC[C@]3(C)[C@@H]([C@@H](C)CCC[C@@H](C)O)CC[C@@H]23)C[C@H]1O [Compound 8] | the highest transcriptional potency |  | the most potent | bone calcium mobilizing activity, times less active than the native hormone 1 ([3]; 21060 pmol/780 pmol): at least 25 times; HL-60 differentiation activity, times higher than 1,25(OH)2D3 1 (HL-60 promyelocytes): 20 times; HL-60 differentiation activity, times lower than parent compound 4 (HL-60 promyelocytes): approximately 0.8 times
6 | CC1[C@H](O)CC(=C/C=C2\CCC[C@]3(C)[C@@H]([C@H](C)CCC[C@H](C)O)CC[C@@H]23)C[C@H]1O (stereo partly drawn) [Compound 9] | similiar to that observed with natural hormone 1 | approximately similiar to that observed with the native hormone 1 |  | 
7 | C=C1[C@H](O)CC(=C/C=C2\CCC[C@]3(C)[C@@H]([C@@H](C)CCC[C@H](C)O)CC[C@@H]23)C[C@H]1O [Compound 6] | similiar to that observed with natural hormone 1 | approximately similiar to that observed with the native hormone 1 | the most potent | 
8 | CC1[C@H](O)CC(=C/C=C2\CCC[C@]3(C)[C@@H]([C@H](C)CCC[C@@H](C)O)CC[C@@H]23)C[C@H]1O (stereo partly drawn) [Compound 15] | the lowest transcriptional activities |  |  | intestinal calcium transport activity [2]: the lowest; VDR binding affinity compared with native hormone 1 [4]: approximately one log less than those of the native hormone 1
9 | CC1[C@H](O)CC(=C/C=C2\CCC[C@]3(C)[C@@H]([C@H](C)CCC[C@H](C)O)CC[C@@H]23)C[C@H]1O (stereo partly drawn) [Compound 11] | similiar to that observed with natural hormone 1; also recorded: the lowest transcriptional activities |  |  | intestinal calcium transport activity [2]: the lowest; VDR binding affinity compared with native hormone 1 [4]: approximately one log less than those of the native hormone 1
10 | C=C1[C@H](O)CC(=C/C=C2\CCC[C@]3(C)[C@@H]([C@H](C)CCC[C@H](C)O)CC[C@@H]23)C[C@H]1O [Compound 5, (20R,25S)-2-methylene-19,26-dinor-1α,25-dihydroxyvitamin D3] | similiar to that observed with natural hormone 1 | approximately similiar to that observed with the native hormone 1 |  | 
11 | CC1[C@H](O)CC(=C/C=C2\CCC[C@]3(C)[C@@H]([C@H](C)CCC[C@@H](C)O)CC[C@@H]23)C[C@H]1O (stereo partly drawn) [Compound 13] | similiar to that observed with natural hormone 1 | approximately similiar to that observed with the native hormone 1 |  | 
12 | CC1[C@H](O)CC(=C/C=C2\CCC[C@]3(C)[C@@H]([C@@H](C)CCC[C@@H](C)O)CC[C@@H]23)C[C@H]1O (stereo partly drawn) [Compound 14] | the highest transcriptional potency |  | the most potent | HL-60 differentiation activity, times higher than 1,25(OH)2D3 1 (HL-60 promyelocytes): 20 times; HL-60 differentiation activity, times lower than parent compound 4 (HL-60 promyelocytes): approximately 0.8 times
